Assays:
Format in all cases: physicochemical
[1] = Real-time storage stability under ambient laboratory conditions, HPLC comparison with freshly prepared material
Description: (§1) Chromatographic analyses were conducted on a Waters Breeze system equipped with a Waters 1525 Binary HPLC pump, 717plus Autosampler, 2487 Dual I Absorbance Detector and column heater employing a Zorbax Extend-C-18 Column (4.6×250 mm; 5 micron, 80 A). Separation occurred using a linear gradient elution according to the following table wherein eluant A consisted of 0.1% TFA in water and eluant B consisted of 0.1% TFA in acetonitrile.
(§2) Injection samples were prepared in water/1N NaOH/acetonitrile diluent (59:1:40) with analyte peaks detected at 230 nm. Analyte peaks associated with the pamoate salts were assayed against standard solutions prepared from liothyronine and levothryroxine.
The HPLC methodology was applied to freshly prepared samples of T3-pamoate and T4 pamoate and the resulting chromatograms compared with chromatograms of the materials after a four-year real-time storage under ambient laboratory conditions. Further, the pamoate salts were evaluated under forced degradation conditions to evaluate the effects of heat and moisture on the salts' chemical and thermal stability. Blank injections of the sample diluent were obtained at each time interval to determine if minor response differences observed were attributable to the diluent and the chromatographic system (eluant) or to real impurities within either liothyronine pamoate or levothyroxine pamoate. […]

[2] = Forced degradation as suspension in USP water at about 60° C., HPLC
Description: as §1, §2
The HPLC methodology was applied to freshly prepared samples of T3-pamoate and T4 pamoate and the resulting chromatograms compared with chromatograms of the materials after a four-year real-time storage under ambient laboratory conditions. Further, the pamoate salts were evaluated under forced degradation conditions to evaluate the effects of heat and moisture on the salts' chemical and thermal stability. Blank injections of the sample diluent were obtained at each time interval to determine if minor response differences observed were attributable to the diluent and the chromatographic system (eluant) or to real impurities within either liothyronine pamoate or levothyroxine pamoate.
To accelerate the potential degradation of levothyroxine pamoate and liothyronine pamoate, samples of each were individually placed in at least an 100 fold excess by weight USP water to form a suspension. The mixture was not degassed and heating was initiated to about 60° C. Multiple samples at each time point were obtained and analyzed from the mixture to assure a representative sample was obtained. FIG. 16 is an HPLC chromatogram of levothyroxine pamoate after subjection to this forced degradation condition for about 98 hours and is indicative of the unexpected stability associated with the organic acid addition salt. […]

Hygroscopicity = settings: compared with sodium or alkali metal salts of the thyroid hormones
Water solubility = test: Water solubility

Compound | Amount of degradation impurity at retention time 25-26 minutes ([1]; extended storage, about four years at ambient laboratory conditions) | Decomposition under forced degradation (late eluting peak, retention time about 25-26 minutes) ([2]; aqueous environment at 60° C. for 148 hours) | Amount of degradation impurity at retention time 25-26 minutes ([2]; forced degradation, aqueous environment at 60° C. for 148 hours) | Hygroscopicity (Hygroscopicity) | Water solubility (Water solubility) | HPLC chromatogram after extended storage compared with freshly prepared material ([1]; about four years, ambient laboratory conditions 18-25° C., amber glass jars, detection 230 nm) | HPLC chromatogram after forced degradation compared with freshly prepared material ([2]; suspension in at least 100 fold excess USP water, not degassed, about 60° C., about 98 hours)
N[C@@H](Cc1cc(I)c(Oc2ccc(O)c(I)c2)c(I)c1)C(=O)O.N[C@@H](Cc1cc(I)c(Oc2ccc(O)c(I)c2)c(I)c1)C(=O)O.O=C(O)c1cc2ccccc2c(Cc2c(O)c(C(=O)O)cc3ccccc23)c1O [liothyronine pamoate] | only a minor amount of the impurity | exhibited some decomposition | significant | – | – | – | –
N[C@@H](Cc1cc(I)c(Oc2cc(I)c(O)c(I)c2)c(I)c1)C(=O)O [levothyroxine sodium, reference compound] | – | – | – | sufficient hygroscopic characteristics | water-soluble | – | –
levothyroxine pamoate | – | – | – | – | insoluble | essentially identical | essentially identical
